Tested on: Marchantia polymorpha wild-type plants
Experiment: Chlorsulfuron resistance determination (survival two weeks after exposure to a lethal dose)
Format: in vivo
Conditions: 0.1 ppm dose (lethal dose); survival assessed two weeks following exposure
Procedure: Marchantia polymorpha spores were irradiated with ultraviolet B irradiation and seven independent mutant lines resistant to the herbicide chlorsulfuron were identified. Chlorsulfuron resistance was determined by a Marchantia polymorpha plant that was alive two weeks following exposure to a lethal dose of Chlorsulfuron (0.1 ppm dose, i.e. a dose sufficient to kill 100% of wild-type plants).

For `COc1nc(C)nc(NC(=O)NS(=O)(=O)c2ccccc2Cl)n1` [Chlorsulfuron], which wild-type plants killed is on record?
The wild-type plants killed was 100%.

Reference: patent publication US20210335449A1, “Method or System for Identification of a Causative Mutation Causing a Phenotype of Interest in a Test Sample” (Oxford University Innovation Limited, priority 2018, published 2021)
